The MIC is the smallest concentration in the dilution series that meets the test's criterion for growth inhibition. High values mean a less susceptible organism, low ones a more susceptible organism.

This is an account of results in patent publication US8895077B2, “Methods for preventing or treating infectious diseases caused by extracellular microorganisms, including antimicrobial-resistant strains thereof, using gallium compounds” (priority 2007, dated 2014).

Data set [1] deals with Vancomycin-resistant Enterococcus faecalis (VRE). As to the kind of experiment: CLSI Vancomycin disk-diffusion test. Format: cell-based. Conditions: VRE ATCC 51575; CLSI Vancomycin resistant range: ≦14 mm.
In a further data set the test system is Salmonella typhi. As to the kind of experiment: MIC/MBC susceptibility test, macrodilution broth method. Format: cell-based. The following applies: Salmonella typhi ATCC 6539; Tryptic soy agar with 5% sheep blood; 36° C. for 48 hours; 8.3 × 10^5 CFU/ml. The procedure:
(§1) Susceptibility of various microorganisms to gallium was tested by determining the minimum inhibitory concentration (MIC) and minimum bactericidal concentration (MBC) for each microorganism using gallium nitrate. In general, MIC is determined by (i) mixing a series of broths, each containing a standard number of microorganisms, with serially diluted solutions of the gallium compound; and (ii) determining the MIC, after incubation, that is the lowest concentration of the gallium compound that inhibits the growth of the microorganism. The lower the MIC, the more susceptible the organism is. The MBC is determined by subculturing an aliquot of each sample from the MIC test on an appropriate agar plate containing no gallium compound.
(§2) Specifically, in the present experiment, two grams of gallium nitrate powder were dissolved in 10 ml of filter-sterilized deionized water and the resulting 20% (w/v) (i.e., 200 mg/ml) solution was once again filter-sterilized. Two-fold serial dilutions were prepared in sterile deionized water down to 0.156% (i.e., 1.56 mg/ml) for the tests for most of the organisms, except for the test for Candida albicans, in which 10%, 1%, 0.5%, 0.1%, 0.05%, 0.01%, 0.005% and 0.001% of gallium nitrate solutions were prepared.
(§3) All organisms were obtained from the American Type Culture Collection (ATCC), Manassas, Va. Each microorganism was picked from the seed culture (see Table 1) and inoculated in an appropriate type of broth to obtain a 0.5 McFarland turbidity standard. The standard suspension of the microorganism was then diluted to 1:100 with the broth and used for the tests.
(§4) Each microorganism was tested in duplicate by either a microdilution broth method in 96-well plates (i.e., 0.1 ml of the gallium nitrate solution mixed with 0.1 ml of the microorganism suspension) or a macrodilution broth method in test tubes (i.e., 1 ml of the gallium nitrate solution mixed with 1 ml of the microorganism suspension) as follows: […]
(§5) The growth of the microorganisms were determined by visual observation of turbidity in the samples. […]

The test system of data set [2] is Methicillin-resistant Staphylococcus aureus (MRSA). The description is as above. Format: cell-based. The following applies: MRSA ATCC 33592; Tryptic soy agar with 5% sheep blood; 36° C. for 48 hours; 5.2 × 10^5 CFU/ml. The procedure: as §1, §2, §3, §4, §5
Data set [3] has as its system Vancomycin-resistant Enterococcus faecalis (VRE). The data set is described as above. Conditions: VRE ATCC 51575; Tryptic soy agar with 5% sheep blood; 36° C. for 48 hours; 3.9 × 10^5 CFU/ml. The data set is classed as cell-based. The protocol:
as §1, §2, §3, §4, §5

The conditions of data set [4]: healthy adults; intravenous infusion for at least 7 days; from U.S. Pat. No. 6,203,822; cited from earlier work.
A further data set relates to Escherichia coli O157:H7. Briefly: MIC/MBC susceptibility test, microdilution broth method. The data set is classed as cell-based. Conditions: E. coli O157:H7 ATCC 35150; Tryptic soy agar with 5% sheep blood; 36° C. for 48 hours; 1.38 × 10^6 CFU/ml. The protocol: as §1, §2, §3
(§6) Each microorganism was tested in duplicate by either a microdilution broth method in 96-well plates (i.e., 0.1 ml of the gallium nitrate solution mixed with 0.1 ml of the microorganism suspension) or a macrodilution broth method in test tubes (i.e., 1 ml of the gallium nitrate solution mixed with 1 ml of the microorganism suspension) as follows:
(§7) Microdilution broth method: Candida albicans; Escherichia coli O157:H7; and Campylobacter jejuni.
(§8) The growth of the microorganisms were determined by visual observation of turbidity in the samples.
(§9) To determine MBC, 10 μl of each sample used in MIC were inoculated onto an appropriate agar plate and incubated.
Background: In broth dilution the organism is exposed to a series of concentrations in liquid medium.

Another data set has as its system Candida albicans. Described as above. Format: cell-based. The following applies: Candida albicans ATCC 10231, 27° C. for 48 hours, 9.75 × 10^5 CFU/ml. The protocol:
as §1, §2, §3, §6, §7, §8, §9

A further data set has as its system Campylobacter jejuni. The data set is described as above. Format: cell-based. Conditions: Campylobacter jejuni ATCC 29428; Tryptic soy agar with 5% sheep blood; 36° C. for 48 hours; 4.9 × 10^5 CFU/ml. The protocol:
as §1, §2, §3, §6, §7, §8, §9

For the compound `CN[C@H](CC(C)C)C(=O)N[C@H]1C(=O)N[C@@H](CC(N)=O)C(=O)N[C@H]2C(=O)N[C@H]3C(=O)N[C@H](C(=O)N[C@H](C(=O)O)c4cc(O)cc(O)c4-c4cc3ccc4O)[C@H](O)c3ccc(c(Cl)c3)Oc3cc2cc(c3O[C@@H]2O[C@H](CO)[C@@H](O)[C@H](O)[C@H]2O[C@H]2C[C@](C)(N)[C@H](O)[C@H](C)O2)Oc2ccc(cc2Cl)[C@H]1O` [Vancomycin], in data set [1], the zone of inhibition entry is “^bAntibiotics resistance of the organism was confirmed by CLSI Vancomycin disk-diffusion test. The zone of inhibition was 10 mm (CLSI Vancomycin resistant range: ≦14 mm)”.
`O=[N+]([O-])[O-].O=[N+]([O-])[O-].O=[N+]([O-])[O-].[Ga+3]` [gallium nitrate]: the MBC against Salmonella typhi is 6250 µg/mL; in data set [2] it was 12500 µg/mL; in data set [3], 25000 µg/mL; in the data set on Escherichia coli O157:H7, 6250 µg/mL; against Candida albicans (Sabouraud dextrose agar), more than 100000 µg/mL; with Campylobacter jejuni, less than 780 µg/mL. Also, the tolerated dose result in data set [4] is listed as “at least 200 mg/m^2/day”. Further, the MIC against Candida albicans (Sabouraud Dextrose broth) was determined as 10000 µg/mL.
